# Assays:
# Assay type in all cases: cell-based
# [1] = system: Wnt activity (Sp5-Luc reporter, TCF/LEF binding sites) in SW480 colon carcinoma cells; assay: Wnt activity screening assay: Sp5-Luc reporter gene assay in SW480 cells; conditions: Homo sapiens; for EC50: Sp5-Luc reporter, SW480 cells, overnight incubation; for inhibition at 10 µM: SW480, read-out: percent inhibition at 10 μM
# Description: The screening assay for Wnt activity is described as follows. Reporter cell lines can be generated by stably transducing cancer cell lines (e.g., colon cancer) or primary cells (e.g., IEC-6 intestinal cells) with a lentiviral construct that includes a Wnt-responsive promoter driving expression of the firefly luciferase gene.
# SW480 colon carcinoma cells were transduced with a lentiviral vector expressing luciferase with a human Sp5 promoter consisting of a sequence of eight TCF/LEF binding sites. SW480 cells stably expressing the Sp5-Luc reporter gene and a hygromycin resistance gene were selected by treatment with 150 μg/mL of hygromycin for 7 days. These stably transduced SW480 cells were expanded in cell culture and used for all further screening activities. […] For Sp5-Luc reporter gene assays, the cells were plated at 4,000 cells/well in 384-well plates with medium containing 1% fetal bovine serum and incubated overnight at 37° C. and 5% CO2. Following incubation, 20 μl of BrightGlo luminescence reagent (Promega) was added to each well of the 384-well assay plates. The plates were placed on an orbital shaker for 2 min and then luminescence was quantified using the Envision (Perkin Elmer) plate reader. Readings were normalized to DMSO only treated cells, and normalized activities were utilized for EC50 calculations using the dose-response log (inhibitor) vs. response variable slope (four parameters) nonlinear regression feature available in GraphPad Prism 5.0 (or Dotmatics).
# [2] = system: SW480 colon cancer cells; assay: Cell viability assay (CellTiter-Blue) in SW480 colon cancer cells; conditions: Homo sapiens; for EC50: 96 h, SW480 cell viability, four days, CellTiter-Blue; for inhibition at 10 µM: SW480, read-out: percent inhibition at 10 μM
# Procedure: Representative compounds were screened using the following assay procedure to assess the effect on cell viability as described below.
# Approximately 2×10^3 SW480 colon cancer cells were seeded into each well and allowed to incubate in the presence or absence of compound for four days at 37° C./5% CO2. Eight replicates of DMSO-treated cells served as controls and cells treated with compound were performed in duplicate.
# After incubation, 20 μL of CellTiter-Blue (Promega) was added to each well allowed to incubate for approximately 3 hours. This reagent was a buffered solution which contains resazurin, metabolically active cells were able to reduce rezarurin (blue) into resorufin (pink) which was highly fluorescent. This measured fluorescence was used as a readout for cell viability.
# [3] = system: LL29 cells (primary human fibroblasts derived from IPF patients), α-smooth muscle actin; assay: Inhibition of the fibrotic process: αSMA staining in TGF-β1 treated primary human fibroblasts from IPF patients (LL29 cells); conditions: Fibroblast; for EC50: 96 h, LL29 cells, TGF-β1 20 ng/mL, 4 days, % αSMA positive cells; for inhibition at 10 µM: read-out: percent inhibition at 10 μM
# Procedure: Representative compounds were screened using primary human fibroblasts (derived from IPF patients) treated with TGF-β1 to determine their ability to inhibit the fibrotic process.
# LL29 cells are plated at 1,500 cells/well in 80 μL/well F12 medium supplemented with 1% Fetal Bovine Serum. […] Wells treated with TGF-β1 and containing DMSO were used as controls. […] Following incubation for 4 days, SYTOX green nucleic acid stain (Life Technologies [Thermo Fisher Scientific]) was added to the wells at a final concentration of 1 μM and incubated at room temperature for 30 min.
# [4] = system: IL-6 in THP-1 cells; assay: IL-6 inhibition in LPS-stimulated THP-1 human monocyte cells (HTRF); conditions: for EC50: IL-6 inhibition, LPS-stimulated THP-1 cells, HTRF, 10-point dose-response starting from 10 μM; for inhibition at 10 µM: THP-1, read-out: percentage in parentheses beside EC50 >10
# Procedure: Compound Screening: THP-1 cells were cultured in basal media with 1% FBS for 24 hours before the start of the assay. […] THP-1 cells were plated at 5000 cells/well in the 384-well plates and incubated at 37° C. for 2 h. 500 ng/mL of LPS was added after 2 hours and cells were incubated for another 22 hours at 37° C. Plates were spun in a centrifuge for 1 minute at […] and a mixture of anti-IL6 XL665, and anti-IL6 Cryptate diluted in reconstitution buffer (Cisbio Inc.) was added to each well. Following incubation for 3 hrs at room temperature, Homogeneous Time-Resolved Fluorescence (HTRF) was measured using the Envision (Perkin Elmer) at 665 nm and […]. The ratio of fluorescence at 665 nm to 620 nm was used as a readout for IL6 quantification. All samples were processed in duplicate. Readings were normalized to DMSO treated cells and normalized activities were utilized for EC50 calculations using the dose-response log (inhibitor) vs. response variable slope (four parameters) nonlinear regression feature available in GraphPad Prism 5.0 (or Dotmatics).
Structure (SMILES),EC50 [1],EC50 [2],EC50 [4],EC50 [3],inhibition at 10 µM [1],inhibition at 10 µM [4],inhibition at 10 µM [2],inhibition at 10 µM [3]
"Fc1cccc(-c2nccc3[nH]c(-c4n[nH]c5ncc(-c6ccncc6)cc45)cc23)c1 [Compound 18, 3-(4-(3-Fluorophenyl)-1H-pyrrolo[3,2-c]pyridin-2-yl)-5-(pyridin-4-yl)-1H-pyrazolo[3,4-b]pyridine]",> 10 µM,0.738 µM,> 10 µM,0.542 µM,22.6%,0%,,
"Cc1ccncc1-c1cnc2[nH]nc(-c3cc4c(-c5ccc(F)cc5)nccc4[nH]3)c2c1 [Compound 33, 3-(4-(4-Fluorophenyl)-1H-pyrrolo[3,2-c]pyridin-2-yl)-5-(4-methylpyridin-3-yl)-1H-pyrazolo[3,4-b]pyridine]",> 10 µM,1.5 µM,> 10 µM,0.553 µM,46.5%,16.4%,,
"CN(C)c1cncc(-c2cnc3[nH]nc(-c4cc5c(-c6cccnc6)nccc5[nH]4)c3c2)c1 [Compound 91, N,N-Dimethyl-5-(3-(4-(pyridin-3-yl)-1H-pyrrolo[3,2-c]pyridin-2-yl)-1H-pyrazolo[3,4-b]pyridin-5-yl)pyridin-3-amine]",> 10 µM,> 10 µM,> 10 µM,6.98 µM,41.6%,32.3%,3%,
"CC(C)(C)C(=O)Nc1cncc(-c2cnc3[nH]nc(-c4cc5c(N6CCCCC6)nccc5[nH]4)c3c2)c1 [Compound 176, N-(5-(3-(4-(Piperidin-1-yl)-1H-pyrrolo[3,2-c]pyridin-2-yl)-1H-pyrazolo[3,4-b]pyridin-5-yl)pyridin-3-yl)pivalamide]",> 10 µM,> 10 µM,> 10 µM,> 10 µM,18.2%,25.9%,5.2%,28.2%
"CN(C)Cc1cncc(-c2cnc3[nH]nc(-c4cc5c(N6CCCCC6)nccc5[nH]4)c3c2)c1 [Compound 181, N,N-Dimethyl-1-(5-(3-(4-(piperidin-1-yl)-1H-pyrrolo[3,2-c]pyridin-2-yl)-1H-pyrazolo[3,4-b]pyridin-5-yl)pyridin-3-yl)methanamine]",> 10 µM,7.76 µM,> 10 µM,9.71 µM,20.3%,41.5%,,
"c1cc(-c2cnc3[nH]nc(-c4cc5c(N6CCCCC6)nccc5[nH]4)c3c2)ccn1 [Compound 186, 3-(4-(Piperidin-1-yl)-1H-pyrrolo[3,2-c]pyridin-2-yl)-5-(pyridin-4-yl)-1H-pyrazolo[3,4-b]pyridine]",> 10 µM,> 10 µM,> 10 µM,> 10 µM,30.8%,25.4%,11.1%,0%
"CN1CCN(c2nccc3[nH]c(-c4n[nH]c5ncc(-c6cncnc6)cc45)cc23)CC1 [Compound 251, 3-(4-(4-Methylpiperazin-1-yl)-1H-pyrrolo[3,2-c]pyridin-2-yl)-5-(pyrimidin-5-yl)-1H-pyrazolo[3,4-b]pyridine]",> 10 µM,> 10 µM,> 10 µM,> 10 µM,17.8%,35.7%,8.3%,24.7%

# Stronger by EC50 [1], values ahead:
EC50 [1],EC50 [2],EC50 [4],Structure (SMILES),EC50 [3],inhibition at 10 µM [1],inhibition at 10 µM [4],inhibition at 10 µM [2],inhibition at 10 µM [3]
1.82 µM,0.856 µM,4.78 µM,"Fc1cccc(-c2nccc3[nH]c(-c4n[nH]c5ncc(-c6cncc(CN7CCCCC7)c6)cc45)cc23)c1 [Compound 15, 3-(4-(3-Fluorophenyl)-1H-pyrrolo[3,2-c]pyridin-2-yl)-5-(5-(piperidin-1-ylmethyl)pyridin-3-yl)-1H-pyrazolo[3,4-b]pyridine]",0.66 µM,,,,
1.29 µM,0.519 µM,3.46 µM,"Fc1cccc(-c2nccc3[nH]c(-c4n[nH]c5ncc(-c6ccccn6)cc45)cc23)c1 [Compound 28, 3-(4-(3-Fluorophenyl)-1H-pyrrolo[3,2-c]pyridin-2-yl)-5-(pyridin-2-yl)-1H-pyrazolo[3,4-b]pyridine]",0.752 µM,,,,
0.986 µM,0.7 µM,2.04 µM,"CC(C)(C)CC(=O)Nc1cncc(-c2cnc3[nH]nc(-c4cc5c(-c6ccc(F)cc6)nccc5[nH]4)c3c2)c1 [Compound 44, N-(5-(3-(4-(4-Fluorophenyl)-1H-pyrrolo[3,2-c]pyridin-2-yl)-1H-pyrazolo[3,4-b]pyridin-5-yl)pyridin-3-yl)-3,3-dimethylbutanamide]",0.315 µM,,,,
1.15 µM,> 10 µM,3.63 µM,"FC1(F)CCN(Cc2cncc(-c3cnc4[nH]nc(-c5cc6c(-c7ccncc7)nccc6[nH]5)c4c3)c2)C1 [Compound 138, 5-(5-((3,3-Difluoropyrrolidin-1-yl)methyl)pyridin-3-yl)-3-(4-(pyridin-4-yl)-1H-pyrrolo[3,2-c]pyridin-2-yl)-1H-pyrazolo[3,4-b]pyridine]",2.22 µM,,,14.3%,
3.65 µM,3.15 µM,0.4 µM,"CN1CCN(c2nccc3[nH]c(-c4n[nH]c5ncc(-c6cncc(CN7CCC(F)(F)C7)c6)cc45)cc23)CC1 [Compound 250, 5-(5-((3,3-Difluoropyrrolidin-1-yl)methyl)pyridin-3-yl)-3-(4-(4-methylpiperazin-1-yl)-1H-pyrrolo[3,2-c]pyridin-2-yl)-1H-pyrazolo[3,4-b]pyridine]",4.94 µM,,,,
3.13 µM,1.14 µM,3.69 µM,"c1ccc(-c2cnc3[nH]nc(-c4cc5cnccc5[nH]4)c3c2)nc1 [Compound 280, 5-(Pyridin-2-yl)-3-(1H-pyrrolo[3,2-c]pyridin-2-yl)-1H-pyrazolo[3,4-b]pyridine]",3.87 µM,,,,
4.05 µM,2.34 µM,> 10 µM,"c1cc2[nH]c(-c3n[nH]c4ncc(-c5cncc(CN6CCCC6)c5)cc34)cc2c(-c2ccoc2)n1 [Compound 322, 3-(4-(Furan-3-yl)-1H-pyrrolo[3,2-c]pyridin-2-yl)-5-(5-(pyrrolidin-1-ylmethyl)pyridin-3-yl)-1H-pyrazolo[3,4-b]pyridine]",2.21 µM,,29.4%,,
0.199 µM,0.369 µM,0.102 µM,"FC1(F)CCN(Cc2cncc(-c3cnc4[nH]nc(-c5cc6c(-c7ccoc7)nccc6[nH]5)c4c3)c2)C1 [Compound 334, 5-(5-((3,3-Difluoropyrrolidin-1-yl)methyl)pyridin-3-yl)-3-(4-(furan-3-yl)-1H-pyrrolo[3,2-c]pyridin-2-yl)-1H-pyrazolo[3,4-b]pyridine]",0.912 µM,,,,
1.65 µM,1.08 µM,5.11 µM,"Cc1ccncc1-c1cnc2[nH]nc(-c3cc4c(-c5cccs5)nccc4[nH]3)c2c1 [Compound 341, 5-(4-Methylpyridin-3-yl)-3-(4-(thiophen-2-yl)-1H-pyrrolo[3,2-c]pyridin-2-yl)-1H-pyrazolo[3,4-b]pyridine]",0.33 µM,,,,

# Source: patent US10226448B2, “3-(1H-pyrrolo[3,2-C]pyridin-2-yl)-1H-pyrazolo[3,4-B]pyridines and therapeutic uses thereof” (Samumed, LLC, priority 2015, dated 2019)
